Measured values as given in US6734292B1, “Pseudoerythromycin derivatives” (The Kitasato Institute, priority 2002, dated 2004).
Where “and” joins values, the source holds several entries; their conditions need not be identical. Equal values may be shown once.

Experiments:
THP-1 cells = experiment: enhancing effect for differentiation-induction from human monocyte to macrophage (THP-1/Mφ system, MTT readout); format: cell-based; set-up: key: ++: enhanced 100% or more; +: enhanced 50-100%; ±: enhanced 25-50%; −: no activity; /: expressed cytoxicity; NT: not tested or under assessment; conditions: in comparison with enhancing action for differentiation-induction of EM 100 μM
Procedure: In order to confirm enhancing effect for differentiation-induction of the compounds of the present invention, the enhancing effect for differentiation-induction from human monocyte to macrophage was assayed. Method is performed as follows. THP-1 cells were collected from cultured liquid by centrifugation, adjusted the concentration to 2×10^5 cells/ml using medium (RPMI 1640) and distributed into the 48-well plate at 500 μl/well. PMA solution 10 μl and sample solution 5 μl were added in each well, stirred with mild shaking and incubated at 37° C. for 72-96 hours under 5% CO2. Further MTT 0.5 mg/ml solution was added at 300 μl/well, and incubated at 37° C. for 3 hours under 5% CO2. Supernatant solution was suctioned using the injection tube, added DMSO 500 μl using automatic continuous injector to dissolve formazan completely and transferred each 100 μl to the 96-well plate. The optical absorption was measured using the plate-reader.

[1] = test system: bleomycin-induced pulmonary fibrosis; experiment: suppressive effect against bleomycin-induced pulmonary fibrosis (hydroxyproline levels in tissue); format: in vivo, mice; conditions: BLM group: BLM 100 mg/kg tail vein day-0 only, day-28, individual mice

melting point | Compound | activities in THP-1/Mφ system, Treated conc. 0.3 μM (THP-1 cells) | activities in THP-1/Mφ system, Treated conc. 1 μM (THP-1 cells) | activities in THP-1/Mφ system, Treated conc. 3 μM (THP-1 cells) | activities in THP-1/Mφ system, Treated conc. 10 μM (THP-1 cells) | activities in THP-1/Mφ system, Treated conc. 30 μM (THP-1 cells) | Hydroxyproline levels in tissue, Assay result [1] | Hydroxyproline levels in tissue, Weight conversion [1]
128 to 130 °C | CC[C@H]1O[C@]2(O)O[C@H]([C@@H](C)C3O[C@@](C)(C[C@@H]3C)[C@H](O[C@@H]3OC(C)CC(N4CCCCC4)C3O)[C@@H](C)[C@H](O[C@H]3CC(C)(OC)[C@@H](O)C(C)O3)[C@H]2C)[C@]1(C)O (stereo partly drawn) [EM734, de(3′-dimethylamino)-3′-piperidino-8,9-anhydro-pseudoerythromycin A 6,9-hemiketal] | − | ± (enhanced 25-50%) | + (enhanced 50-100%) | + (enhanced 50-100%) |  |  | 
 | CC[C@@H](O)[C@@](C)(O)[C@@H]1OC(=O)[C@H](C)[C@@H](O[C@H]2C[C@@](C)(OC)[C@@H](O)[C@H](C)O2)[C@H](C)[C@@H](O[C@@H]2O[C@H](C)C[C@H](NC(C)C)[C@H]2O)[C@@]2(C)CC(C)=C(O2)[C@@H]1C [EM736, bis-de(3′-N-methyl)-3′-N-(2-propyl)-8,9-anhydro-pseudoerythromycin A 6,9-hemiketal] | − | ± (enhanced 25-50%) | + (enhanced 50-100%) | ++ (enhanced 100% or more) |  |  | 
 | CCC(O)C(C)(O)C1OC(=O)C(C)C(O)C(C)C(OC2OC(C)CC(N(C)C)C2O)C2(C)CC(C)=C(O2)C1C (stereo not drawn) [EM737, de(3-O-cladinosyl)-8,9-anhydro-pseudo erythromycin A 6,9-hemiketal] |  |  | − | + (enhanced 50-100%) |  |  | 
115 to 118 °C | CCCCCCNC1CC(C)O[C@@H](O[C@@H]2[C@@H](C)[C@H](O[C@H]3CC(C)(OC)[C@@H](O)C(C)O3)[C@@H](C)[C@@]3(O)O[C@H]([C@@H](C)C4O[C@@]2(C)C[C@@H]4C)[C@](C)(O)[C@@H](CC)O3)C1O (stereo partly drawn) [EM738, bis-de(3′-N-methyl)-3′-N-hexyl-8,9-anhydro-pseudoerythromycin A 6,9-hemiketal] | − | ± (enhanced 25-50%) | + (enhanced 50-100%) |  |  |  | 
158 to 160 °C | CCCCCCN(CCCCCC)C1CC(C)O[C@@H](O[C@@H]2[C@@H](C)[C@H](O[C@H]3CC(C)(OC)[C@@H](O)C(C)O3)[C@@H](C)[C@@]3(O)O[C@H]([C@@H](C)C4O[C@@]2(C)C[C@@H]4C)[C@](C)(O)[C@@H](CC)O3)C1O (stereo partly drawn) [EM739, bis-de(3′-N-methyl)-3′,3′-N,N-dihexyl-8,9-anhydro-pseudoerythromycin A 6,9-hemiketal] | − | ± (enhanced 25-50%) | + (enhanced 50-100%) | + (enhanced 50-100%) |  |  | 
 | CCC(O)C(C)(O)C1OC(=O)C(C)C(OC2CC(C)(OC)C(O)C(C)O2)C(C)C(OC2OC(C)CC(N(C)CCF)C2O)C2(C)CC(C)=C(O2)C1C (stereo not drawn) [EM740] | ± (enhanced 25-50%) | ± (enhanced 25-50%) | + (enhanced 50-100%) | + (enhanced 50-100%) | + (enhanced 50-100%) |  | 
 | CCC(O)C(C)(O)C1OC(=O)C(C)C(OC2CC(C)(OC)C(O)C(C)O2)C(C)C(OC2OC(C)CC(N(C)CC#N)C2O)C2(C)CC(C)=C(O2)C1C (stereo not drawn) [EM742, de(3′-N-methyl)-3′-cyanomethyl-8,9-anhydro-pseudoerythromycin A 6,9-hemiketal] | − | − | − | + (enhanced 50-100%) | + (enhanced 50-100%) |  | 
 | COC1(C)CC(OC2C(C)C(=O)OC(C(C)=NO)C(C)C3=C(C)CC(C)(O3)C(OC3OC(C)CC(N(C)C)C3O)C2C)OC(C)C1O (stereo not drawn) [EM743, de(12-hydroxy)-de[12-(1-hydroxypropyl)]-12-hydroxyoxime-8,9-anhydro-pseudoerythromycin A 6,9-hemiketal] |  | − | ± (enhanced 25-50%) | − |  |  | 
 | CC[C@@H](O)[C@@](C)(O)[C@@H]1OC(=O)[C@H](C)[C@@H](O[C@H]2C[C@@](C)(OC)[C@@H](O)[C@H](C)O2)[C@H](C)[C@@H](O[C@@H]2O[C@H](C)C[C@H](N(C)CCCO)[C@H]2O)[C@@]2(C)CC(C)=C(O2)[C@@H]1C [EM744] |  | − | − | − |  |  | 
 | CC[C@@H](O)[C@@](C)(O)[C@@H]1OC(=O)[C@H](C)[C@@H](O[C@H]2C[C@@](C)(OC)[C@@H](O)[C@H](C)O2)[C@H](C)[C@@H](O[C@@H]2O[C@H](C)C[C@H](N(C)CCOC(C)=O)[C@H]2O)[C@@]2(C)CC(C)=C(O2)[C@@H]1C [EM745, de(3′-N-methyl)-3′-N-(2-acetoxyethyl)-8,9-anhydro-pseudoerythromycin A 6,9-hemiketal] | − | − | ++ (enhanced 100% or more) | ++ (enhanced 100% or more) | ++ (enhanced 100% or more) |  | 
 | COC1(C)CC(OC2C(C)C(=O)OC(C(C)O)C(C)C3=C(C)CC(C)(O3)C(OC3OC(C)CC(N(C)C)C3O)C2C)OC(C)C1O (stereo not drawn) [EM746, de[12-(hydroxypropyl)]-8,9-anhydro-pseudo erythromycin A 6,9-hemiketal] | − | ± (enhanced 25-50%) | + (enhanced 50-100%) | + (enhanced 50-100%) | + (enhanced 50-100%) |  | 
 | CC[C@@H](O)[C@@](C)(O)[C@@H]1OC(=O)[C@H](C)[C@@H](O[C@H]2C[C@@](C)(OC)[C@@H](O)[C@H](C)O2)[C@H](C)[C@@H](O[C@@H]2O[C@H](C)C[C@H](N3CCOCC3)[C@H]2O)[C@@]2(C)CC(C)=C(O2)[C@@H]1C [EM747, de(3′-dimethylamino)-3′-morpholino-8,9-anhydro-pseudoerythromycin A 6,9-hemiketal] |  |  | − | ± (enhanced 25-50%) | ++ (enhanced 100% or more) |  | 
 | CCC(O)C(C)(O)C1OC(=O)C(C)C(OC2CC(C)(OC)C(O)C(C)O2)C(C)C(OC2OC(C)CC(N(CCCCCCCCCCBr)CCCCCCCCCCBr)C2O)C2(C)CC(C)=C(O2)C1C (stereo not drawn) [EM749, bis-de(3′-N-methyl)-3′,3′-N,N-di-(10-bromo-1-decanyl)-8,9-anhydro-pseudoerythromycin A 6,9-hemiketal] |  | ± (enhanced 25-50%) | + (enhanced 50-100%) | + (enhanced 50-100%) | /insolule |  | 
 | COC1(C)CC(OC2C(C)C(=O)OC(C(C)N)C(C)C3=C(C)CC(C)(O3)C(OC3OC(C)CC(N(C)C)C3O)C2C)OC(C)C1O (stereo not drawn) [EM750, de(12-hydroxy)-de[12-(hydroxypropyl)]-12-amino-8,9-anhydro-pseudoerythromycin A 6,9-hemiketal] |  | − | − | ± (enhanced 25-50%) |  |  | 
 | CCC(O)C(C)(O)C1OC(=O)C(C)C(O)C(C)C(OC2OC(C)CC(NC)C2O)C2(C)CC(C)=C(O2)C1C (stereo not drawn) [EM754, de(3-O-cladinosyl) -de(3′-N-methyl) -8,9-anhydrous-pseudoerythromycin A 6,9-hemiketal] |  | − | − |  | + (enhanced 50-100%) |  | 
 | CC[C@H]1OC(=O)[C@H](C)[C@@H](O[C@H]2C[C@@](C)(OC)[C@@H](O)[C@H](C)O2)[C@H](C)[C@@H](O[C@@H]2O[C@H](C)C[C@H](N(C)C)[C@H]2O)[C@](C)(O)C[C@@H](C)C(=NO)[C@H](C)[C@@H](O)[C@]1(C)O [EM oxim, reference compound] |  | − | ± (enhanced 25-50%) | ± (enhanced 25-50%) | ++ (enhanced 100% or more) |  | 
 | CC[C@H]1OC(=O)[C@H](C)[C@@H](O[C@H]2C[C@@](C)(OC)[C@@H](O)[C@H](C)O2)[C@H](C)[C@@H](O[C@@H]2O[C@H](C)C[C@H](N(C)C)[C@H]2O)[C@](C)(O)C[C@@H](C)C(=O)[C@H](C)[C@@H](O)[C@]1(C)O [EM, Erythromycin] |  | − | ± (enhanced 25-50%) | + (enhanced 50-100%) | + (enhanced 50-100%) |  | 
 | bleomycin [BLM, reference compound] |  |  |  |  |  | 785 µmol/L and 733 µmol/L | 7.1 µmol/g and 6.4 µmol/g
